# Measured values as given in patent publication US9993478B2, “1-pyrazolyl-3-(4-((2-anilinopyrimidin-4-yl) oxy) napththalen-1-yl) ureas as P38 MAP knase inhibitors” (Respivert Ltd., priority 2011, dated 2018).
# Key:
# d-U937 cells = assay: Cell viability: MTT assay; type: cell-based, human; conditions: 1 μg/mL
# Method in brief: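 Differentiated U937 cells exposed to compound at 1 or 10 μg/mL final, either 4 h in 5% FCS RPMI1640 or 24 h in 10% FCS RPMI1640. After medium replacement, MTT added 1 h, formazan dissolved in DMSO, A550 read. % viability loss vs 0.5% DMSO vehicle; apparent viability gain shown as negative %.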
# A/J mice = assay: Cigarette smoke model; type: in vivo; conditions: tobacco smoke
# Experimental: A/J mice (males, 5 weeks old) were exposed to cigarette smoke (4% cigarette smoke, diluted with air) for 30 min/day for 11 days using a Tobacco Smoke Inhalation Experiment System for small animals (Model SIS-CS; Sibata Scientific Technology, Tokyo, Japan). Test substances were administered intra-nasally (35 μL of solution in 50% DMSO/PBS) once daily for 3 days after the final cigarette smoke exposure. At 12 hr after the last dosing, each of the animals was anesthetized, the trachea cannulated and bronchoalveolar lavage fluid (BALF) was collected. The numbers of alveolar macrophages and neutrophils were determined by FACS analysis (EPICS® ALTRA II, Beckman Coulter, Inc., Fullerton, Calif., USA) using anti-mouse MOMA2 antibody (macrophage) or anti-mouse 7/4 antibody (neutrophil). BALF was centrifuged and the supernatant was collected. The level of keratinocyte chemoattractant (KC; CXCL1) in BALF was quantitated using a Quentikine® mouse KC ELISA kit (R&D systems, Inc., Minneapolis, Minn., USA).
Compound,MTT Assay Cell viability at time point in d-U937 Cells 4 h (d-U937 cells),MTT Assay Cell viability at time point in d-U937 Cells 24 h (d-U937 cells),Macrophage numbers in BALF % inhibition (A/J mice; 0.32 μg/mL intra-nasal) [%],Neutrophil numbers in BALF % inhibition (A/J mice; 0.32 μg/mL intra-nasal) [%],Macrophage numbers in BALF % inhibition (A/J mice; 1.6 μg/mL intra-nasal) [%],Neutrophil numbers in BALF % inhibition (A/J mice; 1.6 μg/mL intra-nasal) [%],Macrophage numbers in BALF % inhibition (A/J mice; 8.0 μg/mL intra-nasal) [%],Neutrophil numbers in BALF % inhibition (A/J mice; 8.0 μg/mL intra-nasal) [%],Macrophage numbers in BALF % inhibition (A/J mice; 40 μg/mL intra-nasal) [%],Neutrophil numbers in BALF % inhibition (A/J mice; 40 μg/mL intra-nasal) [%]
"Cc1ccc(-n2nc(C(C)(C)C)cc2NC(=O)Nc2ccc(Oc3ccnc(Nc4ccccc4)n3)c3ccccc23)cc1 [Example 1, 1-(3-(tert-Butyl)-1-(p-tolyl)-1H-pyrazol-5-yl)-3-(4-(2-(phenylamino)pyrimidin-4-yloxy)naphthalen-1-yl)urea]","−ve (−ve and +ve indicate the value is below and above respectively, the no significant effect threshold defined as 30% inhibition at 1 μg/mL at the time point indicated)","−ve (−ve and +ve indicate the value is below and above respectively, the no significant effect threshold defined as 30% inhibition at 1 μg/mL at the time point indicated)",11,12,28,29,43,41,64,52
"Cc1ccc(-n2nc(C(C)(C)C)cc2NC(=O)Nc2ccc(Oc3ccnc(Nc4cc(C)ccc4C)n3)c3ccccc23)cc1 [Example 10, 1-(3-(tert-butyl)-1-(p-tolyl)-1H-pyrazol-5-yl)-3-(4-((2-((2,5-dimethylphenyl)amino)pyrimidin-4-yl)oxy)naphthalen-1-yl)urea]","−ve (−ve and +ve indicate the value is below and above respectively, the no significant effect threshold defined as 30% inhibition at 1 μg/mL at the time point indicated)","−ve (−ve and +ve indicate the value is below and above respectively, the no significant effect threshold defined as 30% inhibition at 1 μg/mL at the time point indicated)",–,–,–,–,–,–,–,–
"COCC(=O)Nc1cc(Oc2ccc(NC(=O)Nc3cc(C(C)(C)C)nn3-c3ccc(C)cc3)c3ccccc23)ccn1 [Reference Compound, N-(4-(4-(3-(3-tert-butyl-1-p-tolyl-1H-pyrazol-5-yl)ureido)naphthalen-1-yloxy)pyridin-2-yl)-2-methoxyacetamide, reference compound]","−ve (−ve and +ve indicate the value is below and above respectively, the no significant effect threshold defined as 30% inhibition at 1 μg/mL at the time point indicated)","+ve (−ve and +ve indicate the value is below and above respectively, the no significant effect threshold defined as 30% inhibition at 1 μg/mL at the time point indicated)",–,–,–,–,–,–,–,–
